Tested on: tubulin
Assay: tubulin assembly inhibition, turbidimetry at […] nm
Format: biochemical, Bos taurus
Conditions: read-out: Inhibition of / Tubulin Assembly IC50±SD

Question: With `COc1ccc(N(C)c2nc(C)nc3cc[nH]c23)cc1` [compound 3, N-(4-Methoxyphenyl)-N,2-dimethyl-5H-pyrrolo[3,2-d]pyrimidin-4-amine] as the molecule, how does the IC50 read?
Answer: 10 ± 0.6 µM

From publication PMC3474888 (Pharmaceutical research, 2012)
